Measurements from article PMC5452262 (2016).

Columns and labels:
[1] = test system: TBP-regulated DNA-nanoswitch variant #3 (DNA, hairpin) CTATATAAACCGCCCTTTTATATATCTTGGGTAGGGCGG; assay: fluorescence anisotropy titration; conditions: 150 mM NaCl, 10 mM MgCl2; 50 mM sodium phosphate pH 7.0, 25 °C; 100 nM doxorubicin titrated with DNA
[2] = test system: antibody-regulated DNA-nanoswitch variant #2 (DNA, hairpin) TCCGTTTTTTTTTTTTTTTTCGGA; assay: fluorescence anisotropy titration; conditions: 150 mM NaCl, 10 mM MgCl2; 50 mM sodium phosphate pH 7.0, 25 °C; 100 nM doxorubicin titrated with DNA
[3] = test system: TBP-regulated DNA-nanoswitch variant #2 (DNA, hairpin) CTATATAAAGCCCTTTTATATATCTTGGGTAGGGC; assay: fluorescence anisotropy titration; conditions: 150 mM NaCl, 10 mM MgCl2; 50 mM sodium phosphate pH 7.0, 25 °C; 100 nM doxorubicin titrated with DNA
[4] = test system: antibody-regulated DNA-nanoswitch variant #3 (DNA, hairpin) TCGCCGTTTTTTTTTTTTTTTTCGGCGA; assay: fluorescence anisotropy titration; conditions: 150 mM NaCl, 10 mM MgCl2; 50 mM sodium phosphate pH 7.0, 25 °C; 100 nM doxorubicin titrated with DNA
[5] = test system: TBP-regulated control #1 (lacks GC-rich stem) (DNA, hairpin) TTATATAAATTTTTTATATATTTTTTTTATT; assay: fluorescence anisotropy; conditions: 150 mM NaCl, 10 mM MgCl2; 50 mM sodium phosphate pH 7.0, 25 °C; equimolar doxorubicin and DNA, 100 nM
[6] = test system: antibody-regulated DNA-nanoswitch variant #1 (DNA, hairpin) TAGTTTTTTTTTTTTTTTTCTA; assay: fluorescence anisotropy titration; conditions: 150 mM NaCl, 10 mM MgCl2; 50 mM sodium phosphate pH 7.0, 25 °C; 100 nM doxorubicin titrated with DNA
[7] = test system: TBP-regulated DNA-nanoswitch variant #1 (DNA, hairpin) CTATATAAACCTTTTATATATCTTGGGTAGG; assay: fluorescence anisotropy titration; conditions: 150 mM NaCl, 10 mM MgCl2; 50 mM sodium phosphate pH 7.0, 25 °C; 100 nM doxorubicin titrated with DNA

- binding [1]: yes
- binding [2]: yes
- binding [3]: yes
- binding [4]: yes
- binding [5]: weak
- binding [6]: weak
- binding [7]: yes
SMILES: COc1cccc2c1C(=O)c1c(O)c3c(c(O)c1C2=O)C[C@@](O)(C(=O)CO)C[C@@H]3O[C@H]1C[C@H](N)[C@H](O)[C@H](C)O1
